Reference: ChEMBL document CHEMBL1201862, “PubChem BioAssay data set” (2004)
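All cell lines were grown in 96-well plates and treated with compound for 48 hours. Abbreviation: GI50, concentration required for 50% inhibition of growth.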 Activity calls are given as the source filed them. Cut-off read from the data, not from the text of the source: active = GI50 up to about 1.1 µM and inactive = higher.

What was measured:
Experiment in all cases: NCI anticancer screen, dose series, 48 h
LOX IMVI = tested on: LOX IMVI
UACC-257 = tested on: UACC-257
786-0 = tested on: 786-0
DU-145 = tested on: DU-145
MDA-MB-435 = tested on: MDA-MB-435
SN12C = tested on: SN12C
UACC-62 = tested on: UACC-62
HOP-92 = tested on: HOP-92
A549 = tested on: A549
SF-539 = tested on: SF-539
HOP-62 = tested on: HOP-62
KM12 = tested on: KM12
SW-620 = tested on: SW-620
SF-295 = tested on: SF-295
NCI-H522 = tested on: NCI-H522
CAKI-1 = tested on: CAKI-1
IGROV-1 = tested on: IGROV-1
U-251 = tested on: U-251
HL-60 = tested on: HL-60
PC-3 = tested on: PC-3

Clc1ccc(Cl)c(/N=N/c2cc3c4c(c2)CCCN4CCC3)c1
GI50 (LOX IMVI): > 10 µM (inactive)
GI50 (UACC-257): > 10 µM (inactive)
GI50 (786-0): > 10 µM (inactive)
GI50 (DU-145): > 10 µM (inactive)
GI50 (MDA-MB-435): > 10 µM (inactive)
GI50 (SN12C): > 10 µM (inactive)
GI50 (UACC-62): > 10 µM (inactive)
GI50 (HOP-92): > 10 µM (inactive)
GI50 (A549): > 10 µM (inactive)
GI50 (SF-539): > 10 µM (inactive)
GI50 (HOP-62): > 10 µM (inactive)
GI50 (KM12): > 10 µM (inactive)
GI50 (SW-620): > 10 µM (inactive)
GI50 (SF-295): > 10 µM (inactive)
GI50 (NCI-H522): > 10 µM (inactive)
GI50 (CAKI-1): > 10 µM (inactive)
GI50 (IGROV-1): > 10 µM (inactive)
GI50 (U-251): > 10 µM (inactive)
GI50 (HL-60): 5 µM (inactive)
GI50 (PC-3): > 10 µM (inactive)

C[N+](C)([O-])CCCNc1c2ccccc2nc2cccc([N+](=O)[O-])c12
GI50 (LOX IMVI): 0.51 µM (active)
GI50 (UACC-257): 0.536 µM (active)
GI50 (786-0): 0.166 µM (active)
GI50 (DU-145): 0.299 µM (active)
GI50 (MDA-MB-435): 0.226 µM (active)
GI50 (SN12C): 0.265 µM (active)
GI50 (UACC-62): 0.219 µM (active)
GI50 (HOP-92): 0.31 µM (active)
GI50 (A549): 0.175 µM (active)
GI50 (SF-539): 1.07 µM (active)
GI50 (HOP-62): 0.385 µM (active)
GI50 (KM12): 0.412 µM (active)
GI50 (SW-620): 0.203 µM (active)
GI50 (SF-295): 0.592 µM (active)
GI50 (NCI-H522): 0.115 µM (active)
GI50 (CAKI-1): 1.72 µM (inactive)
GI50 (IGROV-1): 0.259 µM (active)
GI50 (U-251): 0.305 µM (active)
GI50 (HL-60): 0.351 µM (active)
GI50 (PC-3): 0.219 µM (active)

Sc1nn2c(COc3cccc(OCc4nnc5sc(S)nn45)c3)nnc2s1
GI50 (LOX IMVI): 34.4 µM (inactive)
GI50 (UACC-257): > 100 µM (inactive)
GI50 (786-0): 41.4 µM (inactive)
GI50 (DU-145): > 100 µM (inactive)
GI50 (MDA-MB-435): > 100 µM (inactive)
GI50 (SN12C): > 100 µM (inactive)
GI50 (UACC-62): > 100 µM (inactive)
GI50 (HOP-92): > 100 µM (inactive)
GI50 (A549): > 100 µM (inactive)
GI50 (SF-539): 52.1 µM (inactive)
GI50 (HOP-62): > 100 µM (inactive)
GI50 (KM12): > 100 µM (inactive)
GI50 (SW-620): 37.5 µM (inactive)
GI50 (SF-295): > 100 µM (inactive)
GI50 (NCI-H522): 64.6 µM (inactive)
GI50 (CAKI-1): > 100 µM (inactive)
GI50 (IGROV-1): > 100 µM (inactive)
GI50 (U-251): > 100 µM (inactive)
GI50 (HL-60): 7.08 µM (inactive)
GI50 (PC-3): > 100 µM (inactive)

O=C(c1ccc(Cl)cc1)C1OC12C(=O)Nc1ccccc12 (stereo not given)
GI50 (LOX IMVI): 1.45 µM (inactive)
GI50 (UACC-257): 13.8 µM (inactive)
GI50 (786-0): 11.7 µM (inactive)
GI50 (DU-145): 19.1 µM (inactive)
GI50 (MDA-MB-435): 16.9 µM (inactive)
GI50 (SN12C): 6.01 µM (inactive)
GI50 (UACC-62): 14.8 µM (inactive)
GI50 (HOP-92): 10.8 µM (inactive)
GI50 (A549): 23.9 µM (inactive)
GI50 (SF-539): 16 µM (inactive)
GI50 (HOP-62): 35.1 µM (inactive)
GI50 (KM12): 15.6 µM (inactive)
GI50 (SW-620): 3.52 µM (inactive)
GI50 (SF-295): 18 µM (inactive)
GI50 (NCI-H522): 1.91 µM (inactive)
GI50 (CAKI-1): 6.71 µM (inactive)
GI50 (IGROV-1): 19.8 µM (inactive)
GI50 (U-251): 17.3 µM (inactive)
GI50 (HL-60): 0.349 µM (active)
GI50 (PC-3): 25.9 µM (inactive)

CN(C)c1ccc(/C=C(\NC(=O)c2ccccc2)C2=NC(CCC(=O)O)C(=O)O2)cc1 (stereo not given)
GI50 (LOX IMVI): > 44.9 µM (inactive)
GI50 (UACC-257): > 50 µM (inactive)
GI50 (786-0): > 50 µM (inactive)
GI50 (DU-145): > 50 µM (inactive)
GI50 (MDA-MB-435): > 50 µM (inactive)
GI50 (SN12C): > 50 µM (inactive)
GI50 (UACC-62): > 50 µM (inactive)
GI50 (HOP-92): > 50 µM (inactive)
GI50 (A549): > 50 µM (inactive)
GI50 (SF-539): > 35.2 µM (inactive)
GI50 (HOP-62): 15.9 µM (inactive)
GI50 (KM12): 42.8 µM (inactive)
GI50 (SW-620): > 50 µM (inactive)
GI50 (SF-295): > 50 µM (inactive)
GI50 (NCI-H522): 17.1 µM (inactive)
GI50 (CAKI-1): > 50 µM (inactive)
GI50 (IGROV-1): > 50 µM (inactive)
GI50 (U-251): > 47.2 µM (inactive)
GI50 (HL-60): 49.9 µM (inactive)
GI50 (PC-3): > 50 µM (inactive)

O=C(/C=C/c1ccc(O)c(O)c1)OCc1ccccc1 [BENZYL CAFFEATE]
GI50 (LOX IMVI): 15.5 µM (inactive)
GI50 (UACC-257): 21.2 µM (inactive)
GI50 (786-0): 14.7 µM (inactive)
GI50 (DU-145): 15.1 µM (inactive)
GI50 (MDA-MB-435): 6.27 µM (inactive)
GI50 (SN12C): 11.6 µM (inactive)
GI50 (UACC-62): 6.58 µM (inactive)
GI50 (HOP-92): 16.2 µM (inactive)
GI50 (A549): 19.2 µM (inactive)
GI50 (SF-539): 7.06 µM (inactive)
GI50 (HOP-62): 25.6 µM (inactive)
GI50 (KM12): 8.45 µM (inactive)
GI50 (SW-620): 17.4 µM (inactive)
GI50 (SF-295): 11.2 µM (inactive)
GI50 (NCI-H522): 0.809 µM (active)
GI50 (CAKI-1): 27 µM (inactive)
GI50 (IGROV-1): 3.38 µM (inactive)
GI50 (U-251): 14.5 µM (inactive)
GI50 (HL-60): 0.938 µM (active)
GI50 (PC-3): 18 µM (inactive)

NC(=O)N/N=C(\Cc1cc(=O)oc2cc(O)ccc12)C(=O)Nc1ccccc1C(N)=O
GI50 (LOX IMVI): > 100 µM (inactive)
GI50 (UACC-257): > 100 µM (inactive)
GI50 (786-0): > 100 µM (inactive)
GI50 (DU-145): > 100 µM (inactive)
GI50 (MDA-MB-435): > 100 µM (inactive)
GI50 (SN12C): > 100 µM (inactive)
GI50 (UACC-62): > 100 µM (inactive)
GI50 (HOP-92): > 100 µM (inactive)
GI50 (A549): > 100 µM (inactive)
GI50 (SF-539): > 100 µM (inactive)
GI50 (HOP-62): > 100 µM (inactive)
GI50 (KM12): > 100 µM (inactive)
GI50 (SW-620): > 100 µM (inactive)
GI50 (SF-295): > 100 µM (inactive)
GI50 (NCI-H522): > 100 µM (inactive)
GI50 (CAKI-1): > 100 µM (inactive)
GI50 (IGROV-1): > 100 µM (inactive)
GI50 (U-251): > 100 µM (inactive)
GI50 (HL-60): > 100 µM (inactive)
GI50 (PC-3): > 100 µM (inactive)

CCCCN(Cc1ccccc1)/C(=N/C#N)N(Cc1ccccc1)Cc1ccccc1
GI50 (LOX IMVI): 10.9 µM (inactive)
GI50 (UACC-257): 10.6 µM (inactive)
GI50 (786-0): 17.1 µM (inactive)
GI50 (DU-145): 34.7 µM (inactive)
GI50 (MDA-MB-435): 15.7 µM (inactive)
GI50 (SN12C): 18.2 µM (inactive)
GI50 (UACC-62): 16.1 µM (inactive)
GI50 (HOP-92): 11.4 µM (inactive)
GI50 (A549): 13.4 µM (inactive)
GI50 (SF-539): 21.9 µM (inactive)
GI50 (HOP-62): 26.1 µM (inactive)
GI50 (KM12): 10.2 µM (inactive)
GI50 (SW-620): 24.1 µM (inactive)
GI50 (SF-295): 9.95 µM (inactive)
GI50 (NCI-H522): 7.26 µM (inactive)
GI50 (CAKI-1): 10 µM (inactive)
GI50 (IGROV-1): 17.6 µM (inactive)
GI50 (U-251): 17.1 µM (inactive)
GI50 (HL-60): 36.6 µM (inactive)
GI50 (PC-3): 6.71 µM (inactive)

O=c1c(F)cn2c(=O)n1CCCCCCCn1c(=O)c(F)cn(c1=O)CCCCCCC2
GI50 (LOX IMVI): > 100 µM (inactive)
GI50 (UACC-257): 36.4 µM (inactive)
GI50 (786-0): 40.7 µM (inactive)
GI50 (DU-145): 1.59 µM (inactive)
GI50 (MDA-MB-435): 64.9 µM (inactive)
GI50 (SN12C): > 100 µM (inactive)
GI50 (UACC-62): 60.5 µM (inactive)
GI50 (HOP-92): 57.7 µM (inactive)
GI50 (A549): > 100 µM (inactive)
GI50 (SF-539): 33.1 µM (inactive)
GI50 (HOP-62): 46.6 µM (inactive)
GI50 (KM12): 73.1 µM (inactive)
GI50 (SW-620): > 100 µM (inactive)
GI50 (SF-295): > 100 µM (inactive)
GI50 (NCI-H522): > 100 µM (inactive)
GI50 (CAKI-1): 78.3 µM (inactive)
GI50 (IGROV-1): > 100 µM (inactive)
GI50 (U-251): > 100 µM (inactive)
GI50 (HL-60): 49.5 µM (inactive)
GI50 (PC-3): > 100 µM (inactive)

CC1C(=NO)C(C)C(c2ccccc2)N(N=O)C1c1ccccc1 (stereo not given)
GI50 (LOX IMVI): 15.9 µM (inactive)
GI50 (UACC-257): 23.4 µM (inactive)
GI50 (786-0): 19.6 µM (inactive)
GI50 (DU-145): 30.8 µM (inactive)
GI50 (MDA-MB-435): 21.3 µM (inactive)
GI50 (SN12C): 15.5 µM (inactive)
GI50 (UACC-62): 13.5 µM (inactive)
GI50 (HOP-92): 19.7 µM (inactive)
GI50 (A549): 17.8 µM (inactive)
GI50 (SF-539): 13.1 µM (inactive)
GI50 (HOP-62): 19.1 µM (inactive)
GI50 (KM12): 16 µM (inactive)
GI50 (SW-620): 21.8 µM (inactive)
GI50 (SF-295): 13.8 µM (inactive)
GI50 (NCI-H522): 14.7 µM (inactive)
GI50 (CAKI-1): > 10 µM (inactive)
GI50 (IGROV-1): 19.6 µM (inactive)
GI50 (U-251): 17.7 µM (inactive)
GI50 (HL-60): 25 µM (inactive)
GI50 (PC-3): 25.4 µM (inactive)
